Source: the NIST ThermoML archive (doi:10.1021/je900414p)

Experiment: xn = mol fraction of the nth substance listed
Conditions: Liquid

CCOS(=O)(=O)[O-].CCn1cc[n+](C)c1 [1-ethyl-3-methylimidazolium ethyl sulfate] + CCO
mass density [kg/m3]
Conditions	100 kPa	2500 kPa	5000 kPa	10000 kPa	15000 kPa	20000 kPa	25000 kPa	30000 kPa	35000 kPa
313.15 K, x1 = 0.05056	843.63	845.7	847.81	851.86	855.73	859.44	862.99	866.42	869.72
313.15 K, x1 = 0.103	902	903.78	905.71	909.43	912.99	916.4	919.72	922.91	926.01
313.15 K, x1 = 0.1247	923.22	925.01	926.88	930.46	933.91	937.23	940.45	943.56	946.56
313.15 K, x1 = 0.2126	992.44	994.08	995.74	998.97	1002.07	1005.09	1008.03	1010.88	1013.65
313.15 K, x1 = 0.2919	1041.3	1042.32	1043.83	1046.78	1049.64	1052.42	1055.15	1057.79	1060.38
313.15 K, x1 = 0.3185	1054.58	1055.91	1057.39	1060.28	1063.09	1065.82	1068.49	1071.08	1073.63
313.15 K, x1 = 0.4198	1098.28	1099.64	1101.01	1103.69	1106.3	1108.84	1111.34	1113.78	1116.18
313.15 K, x1 = 0.4847	1120.82	1122.08	1123.39	1125.96	1128.48	1130.94	1133.35	1135.7	1138.01
313.15 K, x1 = 0.5713	1146.49	1147.66	1148.92	1151.37	1153.79	1156.13	1158.44	1160.72	1162.93
313.15 K, x1 = 0.6827	1173.47	1174.61	1175.83	1178.16	1180.44	1182.7	1184.92	1187.08	1189.22
313.15 K, x1 = 0.7919	1195.34	1196.17	1197.31	1199.56	1201.76	1203.92	1206.06	1208.15	1210.22
313.15 K, x1 = 0.9317	1217.11	1218.16	1219.26	1221.43	1223.56	1225.65	1227.71	1229.75	1231.75
323.15 K, x1 = 0.05056	835.32	837.47	839.71	843.97	848.02	851.88	855.6	859.16	862.58
323.15 K, x1 = 0.103	893.98	895.85	897.87	901.75	905.47	909.03	912.49	915.79	919.01
323.15 K, x1 = 0.1247	915.32	917.14	919.07	922.82	926.4	929.85	933.19	936.42	939.53
323.15 K, x1 = 0.2126	984.81	986.48	988.21	991.57	994.8	997.91	1000.95	1003.91	1006.77
323.15 K, x1 = 0.2919	1034.05	1035.04	1036.64	1039.7	1042.66	1045.53	1048.35	1051.07	1053.73
323.15 K, x1 = 0.3185	1047.28	1048.63	1050.16	1053.16	1056.05	1058.87	1061.63	1064.29	1066.91
323.15 K, x1 = 0.4198	1091.13	1092.5	1093.93	1096.7	1099.39	1102.02	1104.58	1107.1	1109.55
323.15 K, x1 = 0.4847	1113.75	1115	1116.36	1119.02	1121.59	1124.12	1126.59	1129.01	1131.39
323.15 K, x1 = 0.5713	1139.53	1140.71	1142.02	1144.55	1147.01	1149.42	1151.81	1154.14	1156.41
323.15 K, x1 = 0.6827	1166.57	1167.74	1168.97	1171.37	1173.72	1176.03	1178.31	1180.52	1182.71
323.15 K, x1 = 0.7919	1188.51	1189.35	1190.5	1192.81	1195.06	1197.29	1199.48	1201.62	1203.73
323.15 K, x1 = 0.9317	1210.34	1211.42	1212.55	1214.78	1216.96	1219.11	1221.21	1223.29	1225.34
